Where a name gives a salt, the structure may show the parent alone.
What was measured:
Acute toxicity = conditions: mouse, in vivo, ip; intraperitoneal, male mice, 7 days
Source text: Typical compounds used in the immunoactivator according to the invention were each suspended in physiological salt solution and intraperitoneally administered into groups of male mice, each consisting of 5 mice, followed by breeding and observing for 7 days.

[1] = system: antibody-producing cells in the spleen; assay: IgM antibody producing action in mice, dose dependence (antibody-producing cells/spleen, SRBC immunization); assay type: in vivo, CDF1 mice (male, 10 weeks old); conditions: oral; for Number of antibody-producing cells/spleen (average value): 4 days after administration
[2] = system: antibody-producing cells in the spleen; assay: IgM antibody producing action in mice, time of administration (FIG. 1); assay type: in vivo, CDF1 mice (male, 12 weeks old)
Method: (ii) Groups of CDF1 mice (male, 12 weeks old), each group consisting of 5 mice, were each venously injected with 1×10^8 sheep red blood cells for immunization. The thus injected mice were each orally dosed with a compound of the invention (compound No. 3 in Table 1) at the same day as of the injection (0 day), 1 day, 2 days and 3 days after the injection in an amount of 100 μg/mouse. Four days after the immunization, the number of antibody-producing cells in the spleen cells of each mouse of each group was determined.

mouse's spleen cells = assay: Antibody-producing action based on cell culture (Mishell & Dutton), FIG. 2; conditions: 0.005-20 μg/ml tested; 4 days culture with 1×10^6 sheep red blood cells
Source text: The action of a compound of the invention on the antibody-producing system with respect to sheep red blood cells was investigated on the basis of the mouse's spleen cell culture according to the Mishell & Dutton's method* and its modification**.
**Click, R. E., L. Benck & B. J. Alter: Cellular Immunol. 3: 156-160, 1972.

[3] = system: delayed-type hypersensitivity; assay: Action on delayed-type hypersensitivity (foot sole swelling, SRBC antigen); assay type: in vivo, CDF1 mice (male, 12 weeks old); conditions: oral; for Thickness of Sole Swelling (± S.D.): 24 hours after second injection
Source text: In order to evaluate an action of compounds of the invention on cellular immunity which plays the most important role on the protection reaction against viral infection, the action was investigated according to the method of Lagrange et al.* using as an index the effect on the delayed-type hypersensitivity in which sheep red blood cells were provided as antigen**.
*Lagrange, P. H., G. B. Mackaness & T. E. Miller: J. Exp. Med., 139: 528-542, 1974.
**Ishizuka, M. T. Matsuda, N. Kanbayashi, S. Fukasawa, T. Takeuchi, T. Aoyagi & H. Umezawa: J. Antibiotics 33: 642-652, 1980.
That is, groups of CDF1 mice (male, 12 weeks old), each group consisting of 5 mice, were each immunized by being subcutaneously injected with 10^8 sheep red blood cells at the soles of right hind leg and were simultaneously orally dosed with 4 μg-1 mg/mouse of a compound of the invention (compound No. 3 in Table 1). Four days after the administration, 10^8 sheep red blood cells were subcutaneously injected into each mouse at the sole of the left hind leg, thereby causing the reaction. 24 hours after the injection, the thickness of the foot sole was measured and degrees of swelling of the soles were compared with one another to judge the action.

peritoneal macrophages = assay: Action on phagocytosis of peritoneal macrophage; assay type: in vivo, CDF1 mice (female, 8 weeks old); conditions: for T/C (phagocytosis of macrophage): peritoneal injection
Method: The action of the inventive compound on the phagocytosis of macrophage was investigated.
CDF1 mice (female, 8 weeks old) were each peritoneally injected with 2 ml of a thioglycolate medium to allow the peritoneal macrophages to be released. Four days after the injection, a compound of the invention (Compound No. 3 in Table 1) was peritoneally injected into each mouse in an amount ranging from 1 μg to 1 mg/mouse. 18 hours after the injection, the mice of each group was peritoneally washed with the Dulbecco phosphate buffer solution to collect the peritoneal macrophages, which were then suspended in a serum-free Dulbecco phosphate buffer solution and the suspension was placed in plastic petri dishes, followed by keeping in a 5% carbonic acid gas culture container at 37° C. for 2 hours to obtain adhesive cells. To the respective petri dishes containing the adhesive cells was added a solution of a germ Saccharomyces cervisiae. After having kept the temperature for 30 minutes, the germ solution was removed, followed by culturing 4 hours, washing, and subjecting to the Giemsa staining. Then, the number of cells phagocytizing the germ were counted under microscope to determine the effect of the compound*.
*M. Ishizuka; S. Fukasawa, T. Masuda, J. Sato, N. Kanbayashi, T. Takeuchi & H. Umezawa; J. Antibiotics 32: 330-339, 1980.

splenic cells = assay: Action on blastogenesis of splenic cells (3H-thymidine incorporation); assay type: cell-based, CDF1 mice (female, 10 weeks old)
Method: (1) The splenic cells of CDF1 mice (female, 10 weeks old) were collected and were cultured in a 10% foetal calf serum-added RPMI 1640 medium adding a lectin such as Concanavalin A (Con A) or Lipopolysaccharide (LPS) and a compound of the invention (Compound No. 3 in Table 1), and the blasting effect was determined using as an index incorporation of ^3 H-thymidine into the cultured splenic cells.
(2) The splenic cells of the mouse to which had been added different amounts of Con A or LPS and then 10 μg/ml of the inventive compound (Compound No. 3 in Table 3) were cultured to know the effect on the blasting reaction. […] Further, in order to know whichever lectin is greatly influenced by the compound of the invention for the potentiation, a stimulatory index* was calculated from the results of FIGS. 3a and 3b. […] [formula]

myeloid cells = assay: Action on production of glanulocytic macrophage colony (CFU-C) at myeloid cell culture; assay type: cell-based, mouse
Method: In accordance with the methods of Metcalf* and Stanley et al.**, the myeloid cells of mouse were cultured in soft agar to which a colony stimulating factor (CSF)*** and different amounts of a compound of the invention (Compound No. 3 in Table 1) to investigate the action on the glanulocytic macrophage colony.
**Stanley, E. R., M. Cifone, P. M. Heard & V. Deffendi: J. Exp. Med. 143: 631-647, 1976.
***The mouse serum obtained 6 hours after venous injection of 5 μg of LPS into CDF1 mouse was added in an amount of 0.0125 ml as the colony stimulating factor.

[4] = Solubility in water of salts; assay type: physicochemical; conditions: hydrochloride
[5] = Mus musculus, Macrophage, read-out: T/C (CFU-C)

Compound: c1ccc(C2Oc3ccccc3C3SCCN23)cc1 (stereo not shown) [Compound No. 1]
- LD50 at 168 h (Acute toxicity): 500 mg/kg

Compound: O=Cc1ccc(C2Oc3ccccc3C3SCCN23)cc1 (stereo not shown) [Compound No. 3, 4-(2,3-dihydro-5H,10bH-thiazolo[3,2-c][1,3]benzoxadine-5-yl)benzaldehyde]
- Antibody production (in words) ([1]; 100-400 μg/mouse): potentiate the antibody production
- T/C (antibody-producing cells) ([1]; 0.4 μg/mouse): 106%
- Number of antibody-producing cells/spleen (average value) ([1]; 0.4 μg/mouse): 221,130
- T/C (antibody-producing cells) ([1]; 1.6 μg/mouse): 104%
- Number of antibody-producing cells/spleen (average value) ([1]; 1.6 μg/mouse): 217,890
- T/C (antibody-producing cells) ([1]; 6.2 μg/mouse): 91%
- Number of antibody-producing cells/spleen (average value) ([1]; 6.2 μg/mouse): 189,216
- T/C (antibody-producing cells) ([1]; 25 μg/mouse): 84%
- Number of antibody-producing cells/spleen (average value) ([1]; 25 μg/mouse): 176,040
- T/C (antibody-producing cells) ([1]; 100 μg/mouse): 191%
- Number of antibody-producing cells/spleen (average value) ([1]; 100 μg/mouse): 398,520
- T/C (antibody-producing cells) ([1]; 400 μg/mouse): 148%
- Number of antibody-producing cells/spleen (average value) ([1]; 400 μg/mouse): 308,610
- Time of administration after stimulation of antigen giving maximum potentiation ([2]; 100 μg/mouse oral): 1 to 2 days
- Number of antibody-producing cells over non-administered groups (in words, FIG. 1) ([2]; 100 μg/mouse oral at day 0, 1, 2 or 3 after immunization): increased numbers of antibody-producing cells over the non-administered groups
- Concentration range of significant potentiation of the antibody-producing action (FIG. 2) (mouse's spleen cells): 0.3 to 5 µg/mL
- Delayed-type hypersensitivity vs non-administered control (in words) ([3]; 4 μg to 1 mg/mouse): more pronounced potentiation on the delayed-type hypersensitivity than the non-administered control groups
- T/C (sole swelling) ([3]; 4 μg/mouse): 231%
- Thickness of Sole Swelling (± S.D.) ([3]; 4 μg/mouse): 14.8 ± 1.1 × 0.1 mm
- T/C (sole swelling) ([3]; 16 μg/mouse): 150%
- Thickness of Sole Swelling (± S.D.) ([3]; 16 μg/mouse): 9.6 ± 1.0 × 0.1 mm
- T/C (sole swelling) ([3]; 62 μg/mouse): 181%
- Thickness of Sole Swelling (± S.D.) ([3]; 62 μg/mouse): 11.6 ± 1.6 × 0.1 mm
- T/C (sole swelling) ([3]; 250 μg/mouse): 198%
- Thickness of Sole Swelling (± S.D.) ([3]; 250 μg/mouse): 12.7 ± 1.7 × 0.1 mm
- T/C (sole swelling) ([3]; 1000 μg/mouse): 208%
- Thickness of Sole Swelling (± S.D.) ([3]; 1000 μg/mouse): 13.3 ± 1.3 × 0.1 mm
- Phagocytosis of macrophage (in words) (peritoneal macrophages; 1 μg-100 μg/mouse): improve the phagocytosis of macrophage
- T/C (phagocytosis of macrophage) (peritoneal macrophages; 1 μg/mouse): 127%
- T/C (phagocytosis of macrophage) (peritoneal macrophages; 10 μg/mouse): 133%
- T/C (phagocytosis of macrophage) (peritoneal macrophages; 100 μg/mouse): 137%
- T/C (phagocytosis of macrophage) (peritoneal macrophages; 1000 μg/mouse): 115%
- Blasting reaction, FIGS. 3a and 3b (in words) (splenic cells; 10 μg/ml compound, Con A or LSP 0.5-8 μg/ml): potentiate the blasting reaction
- Stimulatory index Con A vs LPS, FIG. 4 (in words) (splenic cells; 10 μg/ml compound, calculated from FIGS. 3a and 3b): the Con A which is T-cell mitogen is more greatly acted with the compound than the LPS
- Blasting reaction caused by the lectins (in words) (splenic cells; 10 μg/ml, Con A and LPS): accelerate the blasting reaction caused by the lectins including either of Con A and LPS
- 3H-thymidine incorporation into splenic cells (splenic cells; compound 5 μg/ml, Con A (0.5 μg/ml)): 2131 cpm/culture
- 3H-thymidine incorporation into splenic cells (splenic cells; compound 5 μg/ml, LSP (0.5 μ/ml)): 1068 cpm/culture
- 3H-thymidine incorporation into splenic cells (splenic cells; compound 5 μg/ml, no lectin): 148 cpm/culture
- 3H-thymidine incorporation into splenic cells (splenic cells; compound 10 μg/ml, Con A (0.5 μg/ml)): 9982 cpm/culture
- 3H-thymidine incorporation into splenic cells (splenic cells; compound 10 μg/ml, LSP (0.5 μ/ml)): 4007 cpm/culture
- 3H-thymidine incorporation into splenic cells (splenic cells; compound 10 μg/ml, no lectin): 811 cpm/culture
- 3H-thymidine incorporation into splenic cells (splenic cells; compound 20 μg/ml, Con A (0.5 μg/ml)): 1267 cpm/culture
- 3H-thymidine incorporation into splenic cells (splenic cells; compound 20 μg/ml, LSP (0.5 μ/ml)): 665 cpm/culture
- 3H-thymidine incorporation into splenic cells (splenic cells; compound 20 μg/ml, no lectin): 105 cpm/culture
- Incorporation of 3H-thymidine without lectin (in words) (splenic cells; culture free of any lectin): more or less expedites the incorporation of ^3 H-thymidine into the splenic cells
- Number of CFU-C (±S.D.) (myeloid cells; 0.001 μg/ml): 140 ± 6
- Number of CFU-C (±S.D.) (myeloid cells; 0.01 μg/ml): 156 ± 9
- Number of CFU-C (±S.D.) (myeloid cells; 0.1 μg/ml): 189 ± 3
- Number of CFU-C (±S.D.) (myeloid cells; 1 μg/ml): 221 ± 6
- Number of CFU-C (±S.D.) (myeloid cells; 10 μg/ml): 144 ± 16
- Production of CFU-C (in words) (myeloid cells; 0.1 to 1 μg/ml): remarkably potentiate the production of CFU-C
- activity at 0.001 µg/mL (myeloid cells; [5]): 103%
- activity at 0.01 µg/mL (myeloid cells; [5]): 115%
- activity at 0.1 µg/mL (myeloid cells; [5]): 139%
- activity at 1 µg/mL (myeloid cells; [5]): 163%
- activity at 10 µg/mL (myeloid cells; [5]): 106%

Compound: O=Cc1ccc(C2Oc3ccccc3C3SCCN23)cc1 (stereo not shown) [hydrochloride of the compound No. 3, 4-(2,3-dihydro-5H,10bH-thiazolo[3,2-c][1,3]benzoxadine-5-yl)benzaldehyde (Compound No. 3) hydrochloride]
- Solubility in water or physiological salt solution (in words) [4]: soluble in water or physiological salt solution
